The target in one experiment is T1, human KV 1.5 (IKur) (Homo sapiens, UniProt P22460).
T1 construct: expressed in transfected cells
T1 sequence (P22460 whole entry): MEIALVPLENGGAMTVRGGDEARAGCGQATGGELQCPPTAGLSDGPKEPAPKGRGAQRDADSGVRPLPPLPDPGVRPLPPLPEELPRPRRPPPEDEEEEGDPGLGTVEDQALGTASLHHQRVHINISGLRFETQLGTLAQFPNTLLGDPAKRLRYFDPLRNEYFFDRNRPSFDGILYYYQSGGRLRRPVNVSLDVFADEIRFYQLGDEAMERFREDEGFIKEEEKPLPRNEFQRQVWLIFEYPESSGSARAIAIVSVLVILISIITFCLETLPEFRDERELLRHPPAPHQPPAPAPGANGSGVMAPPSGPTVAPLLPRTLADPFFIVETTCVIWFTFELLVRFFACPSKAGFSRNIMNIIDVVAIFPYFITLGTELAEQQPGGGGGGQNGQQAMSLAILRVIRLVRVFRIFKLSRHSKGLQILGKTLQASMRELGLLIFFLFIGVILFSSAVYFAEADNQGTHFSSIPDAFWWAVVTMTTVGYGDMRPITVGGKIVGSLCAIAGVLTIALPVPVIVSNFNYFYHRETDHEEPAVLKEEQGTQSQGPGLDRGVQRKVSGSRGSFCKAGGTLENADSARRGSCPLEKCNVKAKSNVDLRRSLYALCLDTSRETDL
Nature of the experiment: block of IKur current in patch clamped L-929 cells expressing human Kv1.5. It is filed as cell-based. To be noted: 0.3 μM; patch clamped mammalian L-929 cells stably expressing human Kv1.5. The text has this: Assays to determine the degree of activity of a compound as an IKur inhibitor are well known in the art and are described in references such as J. Gen. Physiol., 101(4):513-543 (April 1993), and Br. J. Pharmacol., 115(2):267-274 (May 1995).
Synders, D. J. et al., “A rapidly activating and slowly inactivating potassium channel cloned from human heart: functional analysis after stable mammalian cell culture expression”, J. Gen. Physiol., 101:513-543 (1993). • 2. Zhou, Z. et al., “Block of HERG potassium channels by the antihistamine astemizole and its metabolites desmethylastemizole and norastemizole”, J. Cardiovasc. Electrophysiol., 10(6):836-843 (1999).
In general terms: The patch-clamp technique gives a direct electrical read-out from membranes.
For the compound `CC(Nc1nc(-c2cncc(S(N)(=O)=O)c2)nn2ccc(-c3ccccc3)c12)c1ccccc1` (stereo not shown) [Example 8, 5-(5-Phenyl-4-(1-phenylethylamino)pyrrolo[1,2-f][1,2,4]triazin-2-yl)pyridine-3-sulfonamide], the “KV1_5% Inh L929 @0.3 μM” value is reported as 95.79%.
Regarding `OCC(O)c1nc(NCc2ccccc2)c2c(-c3ccccc3)ccn2n1` (stereo not shown) [Example 18, 1-(4-(Benzylamino)-5-phenylpyrrolo[1,2-f][1,2,4]triazin-2-yl)ethane-1,2-diol], the “KV1_5% Inh L929 @0.3 μM” value turned out to be 47.37%.

Staying with this experiment, now noted: L929, 0.3 μM; patch clamped mammalian L-929 cells stably expressing human Kv1.5; read-out: KV1_5% Inh L929 @0.3 μM.
With `O=C(O)c1cncc(-c2nc(NCc3ccccn3)c3c(-c4ccccc4)ccn3n2)c1` [Example 10, 5-(5-Phenyl-4-(pyridin-2-ylmethylamino)pyrrolo[1,2-f][1,2,4]triazin-2-yl)nicotinic acid], the inhibition at 0.3 µM was 86%.
Still for that read-out and setting: in the case of `NS(=O)(=O)c1cncc(-c2nc(N3Cc4cccnc4C3)c3c(-c4ccccc4)ccn3n2)c1` [Example 144, 5-(4-(5,7-dihydro-6H-pyrrolo[3,4-b]pyridin-6-yl)-5-phenylpyrrolo [2,1-f][1,2,4]triazin-2-yl)pyridine-3-sulfonamide] it was 99%; in that of `NS(=O)(=O)c1cncc(-c2nc(NCc3cocn3)c3c(-c4ccccc4)ccn3n2)c1` [Example 142, 5-(4-((oxazol-4-ylmethyl)amino)-5-phenylpyrrolo [2,1-f][1,2,4]triazin-2-yl)pyridine-3-sulfonamide], 97.2%; in that of `O=C(O)CCNC(=O)c1cncc(-c2nc(NCc3ccccc3)c3c(-c4ccccc4)ccn3n2)c1` [Example 98, 3-(5-(4-(benzylamino)-5-phenylpyrrolo [1,2-f][1,2,4]triazin-2-yl)nicotinamido) propanoic acid], 55.3%.
In the case of `O=S(=O)(CC(F)(F)F)Nc1cncc(-c2nc(NCc3ccccn3)c3c(-c4ccccc4)ccn3n2)c1` [Example 61, 2,2,2-trifluoro-N-(5-(5-phenyl-4-(pyridin-2-ylmethylamino)pyrrolo [1,2-f][1,2,4]triazin-2-yl)pyridin-3-yl)ethanesulfonamide], the inhibition at 0.3 µM turned out to be 90%.
As to `COC(=O)Nc1ccccc1CNc1nc(-c2cncc(S(N)(=O)=O)c2)nn2ccc(-c3ccccc3)c12` [Example 181, methyl (2-(((5-phenyl-2-(5-sulfamoylpyridin-3-yl)pyrrolo[2,1-f][1,2,4]triazin-4-yl)amino)methyl)phenyl)carbamate], the inhibition at 0.3 µM came to 96%.
In the case of `NS(=O)(=O)c1cncc(-c2nc(NCc3ccncc3)c3c(-c4ccccc4)ccn3n2)c1` [Example 159], the inhibition at 0.3 µM was 90%.
As to `c1ccc(-c2ccn3nc(-c4cc[nH]n4)nc(NCc4ccccn4)c23)cc1` [Example 126, 5-pheny 1-2-(1H-pyrazol-3-yl)-N-(pyridin-2-ylmethyl) pyrrolo[1,2-f][1,2,4] triazin-4-amine], the inhibition at 0.3 µM stood at 98.5%.
Regarding `NS(=O)(=O)c1ccc(CCNC(=O)c2nc(NCc3ccccc3)c3c(-c4ccccc4)ccn3n2)cc1` [Example 117, 4-(benzylamino)-5-phenyl-N-(4-sulfamoylphenethyl) pyrrolo[1,2-f][1,2,4] triazine-2-carboxamide], the inhibition at 0.3 µM came to 86.6%.
For `CC(C)S(=O)(=O)Nc1cncc(-c2nc(NCc3ccccn3)c3c(-c4ccccc4)ccn3n2)c1` [Example 64, N-(5-(5-phenyl-4-(pyridin-2-ylmethylamino)pyrrolo[1,2-f][1,2,4]triazin-2-yl)pyridin-3-yl)propane-2-sulfonamide], the inhibition at 0.3 µM turned out to be 97.6%.
For the compound `NS(=O)(=O)c1cncc(-c2nc(NCC3(O)CCCCC3)c3c(-c4ccccc4)ccn3n2)c1` [Example 145, 5-(4-((1-hydroxycyclohexyl)methylamino)-5-phenylpyrrolo [1,2-f][1,2,4]triazin-2-yl)pyridine-3-sulfonamide], the inhibition at 0.3 µM is 62.5%.
On to `Nc1cncc(-c2nc(NCC3CCCCC3)c3c(-c4ccccc4)ccn3n2)c1` [Example 73, 2-(5-aminopyridin-3-yl)-N-(cyclohexylmethyl)-5-phenylpyrrolo[1,2-f] [1,2,4] triazin-4-amine], for which the inhibition at 0.3 µM was determined as 88.3%.
The same measure, in the same setting: in the case of `NS(=O)(=O)c1cncc(-c2nc(NCc3ccccc3)c3c(C4=CCOCC4)ccn3n2)c1` [Example 129, 5-(4-(benzylamino)-5-(3,6-dihydro-2H-pyran-4-yl)pyrrolo[2,1-f][1,2,4]triazin-2-yl)pyridine-3-sulfonamide] it was 93.8%.
Still for that read-out and setting: in the case of `CC(Nc1nc(-c2cncc(S(N)(=O)=O)c2)nn2ccc(-c3ccccc3)c12)c1ccccc1` (stereo not shown) [Example 8, 5-(5-Phenyl-4-(1-phenylethylamino)pyrrolo[1,2-f][1,2,4]triazin-2-yl)pyridine-3-sulfonamide] it was 97.5%; in that of `CC(=O)Nc1ccccc1-c1nc(NCc2ccccn2)c2c(-c3ccccc3)ccn2n1` [Example 53, N-(2-(5-phenyl-4-(pyridin-2-ylmethylamino)pyrrolo[1,2-f][1,2,4]triazin-2-yl)phenyl) acetamide], 98.1%.
As to `O=S(=O)(Nc1cncc(-c2nc(NCc3ccccn3)c3c(-c4ccccc4)ccn3n2)c1)C1CC1` [Example 56, N-(5-(5-phenyl-4-(pyridin-2-ylmethylamino)pyrrolo[1,2-f][1,2,4]triazin-2-yl)pyridin-3-yl) cyclopropanesulfonamide], the inhibition at 0.3 µM stood at 93.8%.
For the compound `NS(=O)(=O)c1cncc(-c2nc(NCC3CCCCO3)c3c(-c4ccccc4)ccn3n2)c1` (stereo not shown) [Example 101, 5-(5-phenyl-4-((tetrahydro-2H-pyran-2-yl)methylamino)pyrrolo [1,2-f][1,2,4]triazin-2-yl)pyridine-3-sulfonamide], the inhibition at 0.3 µM is 93.6%.
As to `CCOC(=O)Nc1cncc(-c2nc(NCc3ccccn3)c3c(-c4ccccc4)ccn3n2)c1` [Example 59, ethyl 5-(5-phenyl-4-(pyridin-2-ylmethylamino)pyrrolo[1,2-f][1,2,4]triazin-2-yl)pyridin-3-ylcarbamate], the inhibition at 0.3 µM came out at 97%.
As to `Nc1ccccc1CNc1nc(-c2cncc(S(N)(=O)=O)c2)nn2ccc(-c3ccccc3)c12` [Example 178, 5-(4-((2-aminobenzyl)amino)-5-phenylpyrrolo [2,1-f][1,2,4]triazin-2-yl)pyridine-3-sulfonamide], the inhibition at 0.3 µM came out at 99.2%.
As for `CC(=O)Nc1ccc(NC(=O)c2nc(NCc3ccccc3)c3c(-c4ccccc4)ccn3n2)cc1` [Example 113, N-(4-acetamidophenyl)-4-(benzylamino)-5-phenylpyrrolo[1,2-f] [1,2,4] triazine-2-carboxamide], the inhibition at 0.3 µM was found to be 88.4%.
Still for that read-out and setting: in the case of `NC(=O)c1cccc(-c2nc(NCc3ccccn3)c3c(-c4ccccc4)ccn3n2)c1` [Example 109, 3-(5-phenyl-4-(pyridin-2-ylmethylamino)pyrrolo[1,2-f][1,2,4]triazin-2-yl)benzamide] it was 98.2%.
For the compound `NS(=O)(=O)c1cncc(-c2nc(NCc3ncccc3F)c3c(-c4ccccc4F)ccn3n2)c1` [Example 173, 5-(5-(2-fluorophenyl)-4-(((3-fluoropyridin-2-yl)methyl)amino)pyrrolo [2,1-f][1,2,4]triazin-2-yl)pyridine-3-sulfonamide], the inhibition at 0.3 µM came out at 98.7%.
Take `NS(=O)(=O)c1cncc(-c2nc(NCc3ccccn3)c3c(-c4ccccc4C(F)(F)F)ccn3n2)c1` [Example 135, 5-(4-((pyridin-2-ylmethyl)amino)-5-(2-(trifluoromethyl)phenyl)pyrrolo[2,1-f][1,2,4]triazin-2-yl)pyridine-3-sulfonamide]: the inhibition at 0.3 µM is 98.5%.
Consider `NC(=O)c1ccc(NC(=O)c2nc(NCc3ccccc3)c3c(-c4ccccc4)ccn3n2)cc1` [Example 115, 4-(benzylamino)-N-(4-carbamoylphenyl)-5-phenylpyrrolo [1,2-f][1,2,4] triazine-2-carboxamide], for which the inhibition at 0.3 µM stood at 90%.
Turning to `O=C(Nc1ccc(CCO)cc1)c1nc(NCc2ccccc2)c2c(-c3ccccc3)ccn2n1` [Example 122, 4-(benzylamino)-N-(4-(2-hydroxyethyl)phenyl)-5-phenylpyrrolo [1,2-f][1,2,4] triazine-2-carboxamide], the inhibition at 0.3 µM was 75.8%.
`CC(=O)Nc1cccc(-c2nc(NCc3ccccn3)c3c(-c4ccccc4)ccn3n2)c1` [Example 48, N-(3-(5-phenyl-4-(pyridin-2-ylmethylamino)pyrrolo[1,2-f][1,2,4]triazin-2-yl)phenyl) acetamide]: the inhibition at 0.3 µM worked out at 96.6%.
On the same count and under the same terms, under `OCC(O)c1nc(NCc2ccccc2)c2c(-c3ccccc3)ccn2n1` (stereo not shown) [Example 18, 1-(4-(Benzylamino)-5-phenylpyrrolo[1,2-f][1,2,4]triazin-2-yl)ethane-1,2-diol] stands 40.9%; under `NS(=O)(=O)c1cncc(-c2nc(NCC3CCCCC3)c3c(-c4ccccc4)ccn3n2)c1` [Example 131, 5-(4-((cyclohexylmethyl)amino)-5-phenylpyrrolo [2,1-f][1,2,4]triazin-2-yl)pyridine-3-sulfonamide], 83.9%; under `c1ccc(-c2ccn3nc(-c4cn[nH]c4)nc(NCc4ccccn4)c23)cc1` [Example 65, 5-phenyl-2-(1H-pyrazol-4-yl)-N-(pyridin-2-ylmethyl) pyrrolo[1,2-f][1,2,4] triazin-4-amine], 97.7%.
In the case of `NS(=O)(=O)c1cccc(NC(=O)c2nc(NCc3ccccc3)c3c(-c4ccccc4)ccn3n2)c1` [Example 116, 4-(benzylamino)-5-phenyl-N-(3-sulfamoylphenyl) pyrrolo[1,2-f][1,2,4] triazine-2-carboxamide], the inhibition at 0.3 µM stood at 89.4%.
On the same count and under the same terms, in the case of `NS(=O)(=O)c1cncc(-c2nc(NCc3cnccn3)c3c(-c4ccccc4)ccn3n2)c1` [Example 160, 5-(5-phenyl-4-(pyrazin-2-ylmethylamino)pyrrolo [1,2-f][1,2,4]triazin-2-yl)pyridine-3-sulfonamide] it was 94.7%; in that of `NS(=O)(=O)c1cnc(O)c(-c2nc(NCc3ccccn3)c3c(-c4ccccc4)ccn3n2)c1` [Example 153, 6-hydroxy-5-(5-phenyl-4-((pyridin-2-ylmethyl)amino)pyrrolo [2,1-f][1,2,4]triazin-2-yl)pyridine-3-sulfonamide], 79.9%.

Values taken from patent US9050345B2, “Pyrrolotriazines as potassium ion channel inhibitors” (BRISTOL-MYERS SQUIBB COMPANY, priority 2013, dated 2015).
